The values below come from ChEMBL document CHEMBL1132525, “Indolocarbazole poisons of human topoisomerase I: regioisomeric analogues of ED-110” (Bioorg Med Chem Lett, 1999).

pIC50: −log10 of the molar value. Bounds are passed on as bounds.

In one assay the target is T1, DNA topoisomerase 1 (Homo sapiens, UniProt P11387).
T1 sequence (P11387 whole entry): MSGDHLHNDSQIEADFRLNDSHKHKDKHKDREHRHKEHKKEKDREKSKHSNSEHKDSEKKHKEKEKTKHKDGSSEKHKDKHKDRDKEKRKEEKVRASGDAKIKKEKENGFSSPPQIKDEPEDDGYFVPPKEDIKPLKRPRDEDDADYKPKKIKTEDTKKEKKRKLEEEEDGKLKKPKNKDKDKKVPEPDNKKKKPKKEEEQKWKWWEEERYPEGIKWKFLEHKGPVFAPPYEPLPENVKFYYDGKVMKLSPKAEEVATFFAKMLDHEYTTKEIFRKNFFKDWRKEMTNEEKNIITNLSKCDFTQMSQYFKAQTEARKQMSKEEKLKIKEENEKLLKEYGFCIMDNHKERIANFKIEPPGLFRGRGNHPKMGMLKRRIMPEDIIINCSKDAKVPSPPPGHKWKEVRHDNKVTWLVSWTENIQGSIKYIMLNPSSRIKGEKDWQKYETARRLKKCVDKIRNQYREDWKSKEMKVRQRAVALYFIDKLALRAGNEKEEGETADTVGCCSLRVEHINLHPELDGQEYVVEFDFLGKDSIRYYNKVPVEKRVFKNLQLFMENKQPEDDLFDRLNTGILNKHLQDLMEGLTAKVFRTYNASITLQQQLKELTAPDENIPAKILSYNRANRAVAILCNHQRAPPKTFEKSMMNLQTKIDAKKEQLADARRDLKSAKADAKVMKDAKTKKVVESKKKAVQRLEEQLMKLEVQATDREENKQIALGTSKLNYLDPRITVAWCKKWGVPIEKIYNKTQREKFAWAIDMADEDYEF
The assay is described as follows: Concentration required to inhibit human DNA topoisomerase I (Topo I).

In assay [1] the test system is DU-145. The assay is described as follows: In vitro antitumor activity against human solid tumor prostate cell line DU-145. The class given is functional, cell-based.
In assay [2] the test system is HT-29. The assay is described as follows: In vitro antitumor activity against human solid tumor colon cell line HT-29. The format is functional, cell-based.
Assay [3] relates to OVCAR-3. In words: In vitro antitumor activity against human solid tumor ovarian cell line OVCAR-3. The class given is functional, cell-based.
For assay [4], the system named is DU-145. The assay is described as follows: In vitro antitumor activity against human solid tumor prostate cell line DU-145; No active. The class given is functional, cell-based.
Assay [5] concerns OVCAR-3. The assay is described as follows: In vitro antitumor activity against human solid tumor ovarian cell line OVCAR-3; No active. The format is functional, cell-based.
In assay [6] the test system is HT-29. The assay is described as follows: In vitro antitumor activity against human solid tumor colon cell line HT-29; No active. The format is functional, cell-based.

Regarding `O=C1NC(=O)c2c1c1c3cccc(O)c3[nH]c1c1c2c2cccc(O)c2n1C1OC(CO)C(O)C(O)C1O` (centres undefined), the pIC50 at DNA topoisomerase 1 is 4.89; in the assay on DU-145 [1], 5.64; in the assay on HT-29 [2] it was less than 5.00; with OVCAR-3 [3], 6.04.
The matching figures for `O=C1NC(=O)c2c1c1c3ccc(O)cc3[nH]c1c1c2c2ccc(O)cc2n1C1OC(CO)C(O)C(O)C1O` (centres undefined): 5.64, 6.92, 5.01 and 6.72.
For the molecule `O=C1NC(=O)C(c2cn(C3OC(CO)C(O)C(O)C3O)c3c(O)cccc23)=C1c1c[nH]c2c(O)cccc12` (centres undefined), the IC50 entry in the assay on DU-145 [4], in the assay with OVCAR-3 [5] and in the assay with HT-29 [6] was “Not Active” throughout.
Take `O=C1NC(=O)c2c1c1c([nH]c3cccc(O)c31)c1c2c2c(O)cccc2n1C1OC(CO)C(O)C(O)C1O` (centres undefined): the pIC50 on DNA topoisomerase 1 is 4.44; with DU-145 [1], 6.02; with HT-29 [2] it was 5.89; in the assay on OVCAR-3 [3], 6.36.
The matching figures for `O=C1NC(=O)c2c1c1c3cc(O)ccc3[nH]c1c1c2c2cc(O)ccc2n1C1OC(CO)C(O)C(O)C1O` (centres undefined): 5.82, 7.17, 6.08 and 6.72.

What is called pIC50 is −log10 of the IC50, conventionally taken in molar units. Read a low pIC50 as a high IC50.
